Data as given in patent US20150276740A1, “METHOD FOR D[…] ACTIVITY” (SYSMEX CORPORATION, priority 2014, published 2015).

Assays:
CDK1 = target: T1, CDK1 (Homo sapiens, UniProt P06493); experiment: Determination of CDK1 kinase activity using chemical luminescence with the ATP derivative as phosphate-group donor (S/N evaluation); assay type: biochemical; conditions: CDK1 immunoprecipitated from K562 solubilized sample; biotinylated CDK2 substrate peptide; anti-DNP antibody detection; compared to the S/N ratio of Comparative Example 1 (ATPγS as phosphate-group donor)
T1 construct: a reaction was caused to occur between CDK1 and the anti-CDK1 antibody; endogenous in cells; host or cells: K562 cells (lysate, immunoprecipitated with anti-CDK1 antibody from Operon on protein A Sepharose beads)
Protocol: In a well of a 96-well filter plate (hydrophilic PVDF membrane manufactured by Millipore Corp.), 70 μL of an immunoprecipitation buffer (a buffer containing 0.1 mass % Nonidet NP-40 and 50 mM tris hydrochloride (pH7.4)) was added. Then, with respect to the immunoprecipitation buffer in the well, 20 μL of an antibody solution containing 16 μg of an anti-CDK1 antibody (manufactured by Operon Co., ltd.), and 30 μL of 20 v/v % Sepharose beads (manufactured by GE Healthcare) coated with protein A were added. […]
Next, with respect to the beads that had been cleaned, 50 μL of the CDK substrate solution (composition: 100 ng/μL biotinylated CDK2 substrate peptide (manufactured by Enzo Inc.), the compound 2 represented by formula (x2), 54 mM tris hydrochloride (pH7.4), and 20 mM magnesium chloride) was added to obtain a mixture. The concentration of the compound 2 was a concentration that provided an absorbance of 2 at 362 nm. This absorbance was measured in a manner similar to that in Example 1 (2). […]

[1] = system: biotinylated CDK2 substrate peptide (Biotin-Ahx-His-His-Ala-Ser-Pro-Arg-Lys)

T1 sequence (P06493 whole entry): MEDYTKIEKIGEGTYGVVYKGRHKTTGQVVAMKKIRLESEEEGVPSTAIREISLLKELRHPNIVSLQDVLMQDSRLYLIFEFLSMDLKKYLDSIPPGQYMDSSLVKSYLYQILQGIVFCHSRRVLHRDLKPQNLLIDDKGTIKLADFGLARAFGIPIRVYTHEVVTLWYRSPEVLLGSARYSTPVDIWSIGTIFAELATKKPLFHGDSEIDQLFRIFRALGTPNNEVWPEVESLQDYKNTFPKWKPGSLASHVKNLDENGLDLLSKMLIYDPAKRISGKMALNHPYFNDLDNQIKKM
T1 sequence (P14635 whole entry partner): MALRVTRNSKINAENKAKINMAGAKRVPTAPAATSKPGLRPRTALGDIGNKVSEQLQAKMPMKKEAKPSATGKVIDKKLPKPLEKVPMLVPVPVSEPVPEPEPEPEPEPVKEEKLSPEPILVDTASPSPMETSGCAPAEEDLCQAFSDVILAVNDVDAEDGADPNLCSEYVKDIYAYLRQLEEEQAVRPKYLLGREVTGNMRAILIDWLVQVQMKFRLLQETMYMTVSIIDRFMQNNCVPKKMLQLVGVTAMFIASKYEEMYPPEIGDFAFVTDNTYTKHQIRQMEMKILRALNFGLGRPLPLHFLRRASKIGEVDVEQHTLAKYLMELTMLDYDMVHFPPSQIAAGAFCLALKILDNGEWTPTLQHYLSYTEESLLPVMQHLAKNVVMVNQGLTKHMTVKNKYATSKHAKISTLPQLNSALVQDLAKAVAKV

Row | Compound | S/N ratio (luminescence intensity A1/luminescence intensity B) (CDK1) | specific luminescence intensity based on CDK2 activity (ATPγDNP transphosphorylation, ALP labeled anti-DNP antibody, chemiluminescence) [1]
1 | Nc1ncnc2c1ncn2C1OC(COP(=O)(O)OP(=O)(O)OP(=O)(O)SC2CC(=O)N(CCC(=O)NCCOCCOCCCNC(CCCCNc3ccc([N+](=O)[O-])cc3[N+](=O)[O-])C(=O)O)C2=O)C(O)C1O (centres unmarked) [compound 4] | tended to be high | 
2 | cyclin-dependent kinase (CDK) 2 |  | the specific luminescence intensity based on CDK2 activity increases in association with an increase in the CDK2 concentration (increase in the solubilized sample concentration)
